Tests used:
[1] = test system: patient-derived Meso92 cell line (biphasic MPM); test: MTT cytotoxicity assay, 72 h, Meso92; format: cell-based, human; conditions: exposure time 72 h
Source text: Cell lines and culture conditions
(§1) Mouse malignant mesothelioma cancer cell line AB12, human nonmalignant mesothelioma cancer cell line Met5A (mesothelial cells), mouse macrophage cell line J774 and human monocytic cell line THP-1 were obtained from American Type Culture Collection (ATCC) (Rockville, MD, USA). Human malignant mesothelioma cell lines VMC23 (epithelial), Meso82 (sarcomatous), Meso92 (biphasic), were kindly provided by Prof. Walter Berger (Medical University of Vienna). All cells except for J774 were cultured in RPMI and J774 cells were cultured in DMEM. Both types of media were supplemented with 10% FBS and 1% penicillin-streptomycin (10,000 U/mL). Cells were grown in tissue culture flasks (75 cm2 and 25 cm2, SPL Life Sciences Co., Ltd., Korea). All cell lines were grown at 37 °C in a humidified atmosphere of 95% air and 5% CO 2 and passaged when they reached 80–90% confluency. All Au stock solutions were prepared in 1% DMSO in the respected medium, ensuring that cell viability was not inhibited. The Au concentration in the stock solutions was confirmed through inductively coupled plasma optical emission spectrometry. The stock solution of pemetrexed (10 mM) was prepared in Milli -Q water.
Inhibition of c ell viability assay
(§2) The cytotoxicity of compounds was determined using an MTT colorimetric test. The cells were harvested from culture flasks by trypsinization and seeded into Cellstar 96 -well microculture plates (Greiner Bio -One) at the seeding density of 6000 cells per well (6 × 10^4 cells/mL). After
(§3) the cells were allowed to resume exponential growth for 16 h, they were exposed to drugs at
(§4) different concentrations in media for 72 h. The drugs were diluted in a complete medium at the desired concentration added to each well (100 μL) and serially diluted in other wells. After exposure for 72 h, the media was replaced with MTT in media (5 mg/mL, 100 μL/well) and
(§5) incubated for an additional 50 min. Subsequently, the medium was aspirated, and the purple formazan crystals formed in viable cells were dissolved in DMSO (100 μL/well). Optical densities were measured at 570 nm using a BioTek Synergy H1 microplate and MultiskanTM SkyHigh plate readers. The quantity of viable cells was expressed in terms of treated/control (T/C) values in comparison to untreated control cells, and 50% inhibitory concentrations (IC 50) were calculated from concentration-effect curves by interpolation. An evaluation was based on means from at least three independent experiments, each comprising three replicat es per

[2] = test system: human malignant mesothelioma cell line JU77; test: MTT cytotoxicity assay, 72 h, JU77; format: cell-based; conditions: exposure time 72 h
Source text: (§6) Human malignant mesothelioma cancer cell lines JU77 and LO68 were obtained from Cell Bank Australia (Children's Medical Research Institute, Westmead, Australia). Mouse malignant mesothelioma cancer cell line AB12, human nonmalignant mesothelioma cancer cell line Met5A (mesothelial cells), mouse macrophage cell line J774 and human monocytic cell line THP-1 were obtained from American Type Culture Collection (ATCC) (Rockville, MD, USA). Human malignant mesothelioma cell lines VMC23 (epithelial), Meso82 (sarcomatous), Meso92 (biphasic), were kindly provided by Prof. Walter Berger (Medical University of Vienna). All cells except for J774 were cultured in RPMI and J774 cells were cultured in DMEM. Both types of media were supplemented with 10% FBS and 1% penicillin-streptomycin (10,000 U/mL). Cells were grown in tissue culture flasks (75 cm2 and 25 cm2, SPL Life Sciences Co., Ltd., Korea). All cell lines were grown at 37 °C in a humidified atmosphere of 95% air and 5% CO 2 and passaged when they reached 80–90% confluency. All Au stock solutions were prepared in 1% DMSO in the respected medium, ensuring that cell viability was not inhibited.
as §2, §3, §4, §5

[3] = test system: murine malignant mesothelioma cell line AB12; test: MTT cytotoxicity assay, 72 h, AB12; format: cell-based, mouse; conditions: exposure time 72 h
Source text: as §6, §2, §3, §4, §5

[4] = test system: human malignant mesothelioma cell line LO68; test: MTT cytotoxicity assay, 72 h, LO68; format: cell-based; conditions: exposure time 72 h
Source text: as §6, §2, §3, §4, §5

[5] = test system: patient-derived Meso84 cell line (sarcomatoid MPM); test: MTT cytotoxicity assay, 72 h, Meso84; format: cell-based, human; conditions: exposure time 72 h
[6] = test system: patient-derived VMC23 cell line (epithelioid MPM); test: MTT cytotoxicity assay, 72 h, VMC23; format: cell-based, human; conditions: exposure time 72 h
[7] = test system: AB12 cells phagocytosed by J774 macrophages; test: Phagocytosis assay, flow cytometry; format: cell-based, mouse; conditions: AB12 treated 100 min at 5 × IC50 (72 h), 16 h with J774 macrophages
Protocol: page 21: incubated for an additional 50 min. Subsequently, the medium was aspirated, and the purple formazan crystals formed in viable cells were dissolved in DMSO (100 μL/well). Optical densities were measured at 570 nm using a BioTek Synergy H1 microplate and MultiskanTM SkyHigh plate readers. The quantity of viable cells was expressed in terms of treated/control (T/C) values in comparison to untreated control cells, and 50% inhibitory concentrations (IC 50) were calculated from concentration-effect curves by interpolation. An evaluation was based on means from at least three independent experiments, each comprising three […] concentration level. For macrophage analyses, the acute monocytic leukemia -derived THP-1 cell line (ATCC) was used as a model. 1 × 104 THP-1 cells were seeded per well in 96-well plates in RPMI-1640 with 10% FCS and treated for 24 h with 75 nM phorbol 12-myristate 13-acetate (PMA, Sigma- Aldrich) to induce M0 macrophage differentiation. After the differentiation period, PMA was replaced by fresh culture medium to recover for 2h. Afterwards increasing concentrations of 1G, 5A, 5B and 5G were added for a 72-h continuous drug exposure assay. In parallel, the […] were allowed to attach for 24 h. Gold compounds were added to the cells as described for the THP-1 model above. After the incubation period of 72 h, cell viability was determined by an MTT-based assay (EU4U, Biomedica) following the instructions of the manufacturer. DMSO had not impact on the cell viability at the concentrations used. Flow cytometry experiments Phagocytosis assay […] with RPMI, centrifuged (300 × g, 5 min) and labelled with CellTracker Red CMTPX Dye (0.72 μM for 5 × 10^5 cells) at 37°C for 30 minutes in 1 ml of serum -free RPMI. Following S21 page 22: centrifugation of the cells (300 × g, 5 min), 5 ml of fresh RPMI was introduced, and the cells were seeded at a density of 5 x 10^5 cells per well into Cellstar 6-well plates (Greiner Bio-One) (1 ml per well). J774 macrophages (70-80% confluence in a T75 flask) were detached by scraping, centrifuged (300 × g, 5 min). The medium was substituted with 1 ml of DMEM containing CellTracker Green CMFDA (1 μM) and the J774 macrophages were stained at 37°C for 30 minutes. Following centrifugation of the J774 macrophages (300 × g, 5 min), 5 ml of fresh DMEM was introduced, and the macrophages were seeded into a 100 cm2 petri dish (SPL Life Sciences, Korea). After 24 h, the media in AB12 cells was replaced with 1 ml of fresh […] for 100 minutes. After removing the drug-containing media, the cells were trypsinized (0.5 ml), neutralized with 1 ml of RPMI, centrifuged (300 × g, 5 min) and counted. From each sample, […] cells into 6-well plates. AB12 cells and J774 macrophages were co-incubated for 16 h at 37°C and 5% CO2, detached by scraping, centrifuged (300 × g, 5 min), and the pellets were resuspended in PBS for immediate analysis using a CytoFLEX Flow Cytometer (Beckman Coulter, USA). The percentage of phagocytosis was determined by calculating the number of double-positive macrophages (Q2) over the total number of macrophages (Q2 + Q3). […] Annexin V/PI assay AB12 cells were seeded into Cellstar 6-well plates (Greiner Bio-One) at a density of 5 × 10^5 cells/well (1 ml per well). […] The medium was removed and cells were washed with PBS (2 × 1 mL). Afterwards the cells were […] S22

[8] = test system: human nonmalignant mesothelioma cell line Met5A; test: MTT cytotoxicity assay, 72 h, Met5A; format: cell-based; conditions: exposure time 72 h
Source text: Cell lines and culture conditions
as §1
Inhibition of c ell viability assay
as §2, §3, §4, §5

[9] = Aqueous stability by RP-HPLC in 1:1 DMSO:H2O over 72 h; format: physicochemical; conditions: room temperature
Protocol: The aqueous stability of the Au(III)–DTC complexes was assessed by monitoring their RP-HPLC profiles in a 1:1 DMSO:H2O mixture at room temperature over a 3-day period (Supplementary Figures 112–146).
Determination of the purity of cyclometalated Au( III) complexes was performed using analytical HPLC on a Shimadzu Prominence System equipped with a DGU -20A3 Degasser, two LC-20AD Liquid Chromatography Pump, a SPD-20A UV/Vis Detector and a Shim Pack GVP-ODS 2.0 mm 18 column ([…], 120Å, 250 mm × 4.60 mm i.d.). The analysis was conducted at r.t. with a flow rate of 1.0 mL/min and detection at 254 and 280 nm. Mobile phase A was H2O + 0.1% Trifluoroacetic acid (TFA) while mobile phase B is ACN + 0.1% TFA. The gradient program parameters were as follows: mobil e phase B was increased from 30 to 95% over 30 min. 95% mobile phase B was maintained for 10 min, 95 to 30% over 5 min, and finally returned to 30% for 10 min for the next analysis. LogP values of the complexes were calculated based on the HPLC retention times derived from the calibration standard curve. The calibration standard curve was established using 2-butanone, phenylacetonitrile, anisole, ethyl benzoate, benzophenone, diphenyl ether and triphenylamine. To conduct an aqueous stability study, the HPLC profiles of the sample stock solutions were diluted to a 1:1 ratio of DMSO to […]
water. […]

[10] = determined from retention time using RP-HPLC
[11] = test system: AB12 cells in BALB/c mice; test: In vivo vaccination model; set-up: species or system mouse; conditions: within the first 30 days after vaccination, n = 8
Source text: Initially, AB12 cells underwent pretreatment with varying concentrations of Au(III) complexes, and the induced cell death and release of desired ICD biomarkers were monitored over time. Upon reaching a cell death rate of 65%–75%, BALB/c mice (n = 8) were subcutaneously injected in the left flank with a vaccine containing 3 × 10^5 of live/dying/dead cells, while the vehicle group received injections of PBS. Seven days postvaccine administration, the immunized mice were rechallenged by inoculating the same number of live AB12 cells (without any prior treatment) into the right flanks (Figure 5A). The progression of tumor growth on the right flanks was monitored using a caliper.
AB12 cells were seeded into Cellstar 24-well plates (Greiner Bio-One) at a density of 1.8 × 104
cells/ml (1 ml per well) and allowed to grow exponentially for 16 hours. Subsequently, the
medium was replaced with 1 ml of fresh medium containing compounds of interest at
predetermined concentrations (with a minimum of 4 wells per treatment condition). These
concentrations were selected to induce 65-75% cell death.
Subsequently, the culture
medium was aspirated, and the cells were washed twice with 1 mL of PBS. The cell
concentration was adjusted to 3 × 10^5 cells (including dead/dying/live cells) per 100 μL of PBS,
and the ratio of dead/live cells was assessed using the Invitrogen Countess 3 cell counter. In
the subsequent experiment, BALB/c mice (8 mice per group) were subcutaneously injected
with 0.1 mL of AB12 cells (3 × 10^5 cells/mL, including dead/dying/live cells) or the
corresponding vehicle (PBS) on the left flank. Tumor growth was monitored daily.
After 7 days, the mice were subcutaneously injected with
0.1 mL of AB12 cells (3 × 10^5 cells/mL, live cells) on the right flank. Regular measurements
of body weights and tumor sizes were taken. Mice that developed palpable tumors were
euthanized for further analysis.

Row | SMILES | IC50 [1] [nM] | IC50 [2] [nM] | IC50 [3] [nM] | IC50 [4] [nM] | IC50 [5] [nM] | IC50 [6] [nM] | phagocytosis rate [7] | IC50 [8] [nM] | hydrolysis over the 72-h period [9] | minor RP-HPLC peak, share of the total area after 24 h [9] [%] | minor RP-HPLC peak, share of the total area after 72 h [9] | LogP [10] | mice that developed tumors after vaccination [11]
1 | COC1c2cccc[c]2[Au-]2([S]C(=[N+](Cc3ccccc3)Cc3ccccc3)[S]2)[n+]2ccccc21.F[P-](F)(F)(F)(F)F (racemic) [4D] | 4100 ± 900 | 1700 ± 200 | 2300 ± 100 | 2300 ± 600 | 2900 ± 700 | 4200 ± 700 | 35% ± 9% | 3200 ± 300 |  |  |  |  | 
2 | CC[N+](=C1[S][Au-]2([S]1)[c]1ccccc1C(OC)c1cccc[n+]12)c1ccccc1.F[P-](F)(F)(F)(F)F (racemic) [4E] | 5300 ± 200 | 3200 ± 300 | 1900 ± 400 | 4500 ± 500 | 2300 ± 600 | 4300 ± 800 |  | 1400 ± 300 | less than 10% | 5 | 7% |  | 
3 | COC1c2cccc[c]2[Au-]2([S]C(=[N+]3CCCCC3)[S]2)[n+]2ccccc21.F[P-](F)(F)(F)(F)F (racemic) [4H] | 1700 ± 300 | 2400 ± 200 | 220 ± 30 | 2500 ± 100 | 330 ± 80 | 2800 ± 300 |  | 680 ± 140 |  |  |  | 2.33 | 
4 | CC[N+](CC)=C1[S][Au-]2([S]1)[c]1ccccc1Cc1cccc[n+]12.F[P-](F)(F)(F)(F)F (stereo not drawn) [2B] | 6200 ± 1700 | 3000 ± 400 | 300 ± 60 | 2200 ± 400 | 420 ± 120 | 6600 ± 1700 |  | 530 ± 80 |  |  |  |  | 
5 | CC[N+](=C1[S][Au-]2([S]1)[c]1ccccc1Cc1cccc[n+]12)c1ccccc1.F[P-](F)(F)(F)(F)F (stereo not drawn) [2E] | 1600 ± 200 | 1600 ± 200 | 2700 ± 600 | 2300 ± 100 | 1600 ± 400 | 2000 ± 600 |  | 3000 ± 600 | less than 10% | 4 | remained unchanged |  | 
6 | F[P-](F)(F)(F)(F)F.c1cc[c]2c(c1)Cc1cccc[n+]1[Au-]21[S]C(=[N+]2CCCC2)[S]1 (stereo not drawn) [2F] | 1000 ± 300 | 1100 ± 100 | 290 ± 40 | 720 ± 120 | 560 ± 100 | 970 ± 260 |  | 730 ± 120 | less than 10% | 5 | 9% |  | 
7 | F[P-](F)(F)(F)(F)F.c1cc[c]2c(c1)Cc1cccc[n+]1[Au-]21[S]C(=[N+]2CCCCC2)[S]1 (stereo not drawn) [2H] | 5200 ± 1200 | 2000 ± 500 | 310 ± 80 | 1900 ± 300 | 300 ± 70 | 8400 ± 1300 |  | 2200 ± 500 |  |  |  | 2.56 | 
8 | C[N+](C)=C1[S][Au-]2([S]1)[c]1ccccc1C(=O)c1cccc[n+]12.F[P-](F)(F)(F)(F)F (stereo not drawn) [3A] | 530 ± 110 | 1900 ± 500 | 140 ± 40 | 990 ± 190 | 1200 ± 200 | 640 ± 60 |  | 440 ± 130 |  |  |  |  | 
9 | CC[N+](CC)=C1[S][Au-]2([S]1)[c]1ccccc1C(=O)c1cccc[n+]12.F[P-](F)(F)(F)(F)F (stereo not drawn) [3B] | 1100 ± 300 | 1200 | 220 ± 10 | 930 ± 180 | 1400 ± 300 | 7500 ± 1400 |  | 1400 ± 100 |  |  |  |  | 
10 | F[P-](F)(F)(F)(F)F.O=C1c2cccc[c]2[Au-]2([S]C(=[N+]3CCCCCC3)[S]2)[n+]2ccccc21 (stereo not drawn) [3G] | 1800 ± 200 | 1100 ± 200 | 350 ± 70 | 1200 ± 100 | 1800 ± 300 | 1400 ± 200 |  | 1500 ± 200 |  |  |  |  | 
11 | CCCC[N+](CCCC)=C1[S][Au-]2([S]1)[c]1ccccc1Nc1cccc[n+]12.F[P-](F)(F)(F)(F)F (stereo not drawn) [5C] | 410 ± 60 | 86 ± 22 | 130 ± 30 | 360 ± 70 | 180 ± 30 | 640 ± 140 | 35% ± 9% | 65 ± 15 |  |  |  |  | ≈ 50%
12 | F[P-](F)(F)(F)(F)F.c1ccc(C[N+](Cc2ccccc2)=C2[S][Au-]3([S]2)[c]2ccccc2Nc2cccc[n+]23)cc1 (stereo not drawn) [5D] | 1100 ± 200 | 520 ± 80 | 1100 | 950 ± 130 | 1100 ± 300 | 1300 ± 300 |  | 1000 ± 200 |  |  |  |  | 
13 | CC[N+](=C1[S][Au-]2([S]1)[c]1ccccc1Nc1cccc[n+]12)c1ccccc1.F[P-](F)(F)(F)(F)F (stereo not drawn) [5E] | 400 ± 50 | 440 ± 130 | 180 ± 10 | 760 ± 180 | 510 ± 100 | 340 ± 40 |  | 280 ± 80 |  |  |  |  | 
